Measurements as given in patent US20230271959A1, “HETEROCYCLIC COMPOUND AS BCL-2 INHIBITOR” (Beijing Innocare Pharma Tech Co., Ltd., priority 2020, published 2023).

Experiments:
[1] = biological target: T1, human recombinant Bcl-2 protein (Homo sapiens, UniProt P10415); assay: Fluorescence polarization test for inhibition of BCL-2 binding to FITC-BIM; details: 5 nM BCL-2, 5 nM FITC-BIM, read-out: FP BCL-2 IC50
T1 construct: purchased Beijing Yigiao Shenzhou Biotechnology Co., Ltd. 10195-HOSE
Method in brief: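 FP competition: compound preincubated 15 min with recombinant human Bcl-2 (diluted to 5 nM), then FITC-BIM (diluted to 5 nM) added for 30 min at room temperature in PBS pH 7.4 with 1 mM DTT. Polarization read at 480/535 nm; IC50 from 8-point 4-fold series fitted by four-parameter equation.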

[2] = biological target: T2, human recombinant Bcl-XL protein (Homo sapiens, UniProt Q07817); assay: Fluorescence polarization test for inhibition of BCL-XL binding to FITC-BIM; details: 10 nM BCL-XL, 10 nM FITC-BIM, read-out: FP BCL-XL IC50
T2 construct: purchased Beijing Yiqiao Shenzhou Biotechnology Co., Ltd. 10455-H0SE
T2 sequence (Q07817 whole entry): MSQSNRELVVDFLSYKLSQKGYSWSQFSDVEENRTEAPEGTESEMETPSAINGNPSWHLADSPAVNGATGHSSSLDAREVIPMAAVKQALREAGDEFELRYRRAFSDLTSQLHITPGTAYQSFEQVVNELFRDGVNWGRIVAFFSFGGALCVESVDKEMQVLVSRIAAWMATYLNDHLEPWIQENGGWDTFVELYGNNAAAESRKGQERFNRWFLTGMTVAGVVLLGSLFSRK
Method in brief: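 Human recombinant Bcl-XL (10 nM diluted stock) preincubated with compound 15 min at RT in PBS pH 7.4, 1 mM DTT, then FITC-BIM peptide (10 nM diluted stock) added for 30 min in dark. FP read at ex 480/em 535 nm; no-protein wells = 100% inhibition; IC50 from 8-point 4-fold dilution curve fit.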

[3] = tested on: RS4;11 cells (acute lymphoblastic leukemia cells); assay: RS4;11 cell proliferation, CellTilter-Glo luminescence cell viability assay; format: cell-based; details: Homo sapiens, RS4-11; CTG readout after 48 hours
Method in brief: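 RS4;11 cells plated overnight were exposed for 48 h at 37 °C, 5% CO2 to an 8-point, 4-fold compound dilution series; the vehicle control contained 0.2% DMSO. Viability was read by CellTiter-Glo luminescence. Percent inhibition was referenced to no-cell and DMSO controls, and IC50 came from a four-parameter sigmoidal fit.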

T1 sequence (P10415 whole entry): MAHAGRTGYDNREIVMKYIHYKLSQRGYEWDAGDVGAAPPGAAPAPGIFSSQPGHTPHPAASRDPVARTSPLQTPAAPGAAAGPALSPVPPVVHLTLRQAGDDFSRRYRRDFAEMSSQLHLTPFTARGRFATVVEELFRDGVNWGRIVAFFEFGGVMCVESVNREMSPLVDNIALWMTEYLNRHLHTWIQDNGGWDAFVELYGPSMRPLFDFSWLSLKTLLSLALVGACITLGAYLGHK

| SMILES | IC50 [1] | IC50 [2] | IC50 [3] |
| --- | --- | --- | --- |
| C[C@@H]1CN(CC2=C(c3ccc(Cl)cc3)CCC(C)(C)C2)CCN1c1ccc(C(=O)NS(=O)(=O)c2ccc(NC[C@H]3COCCO3)c([N+](=O)[O-])c2)c(Oc2cnc3[nH]ccc3c2)c1 [Example 44, N-((4-((((S)-1,4-dioxan-2-yl)methyl)amino)-3-nitrophenyl)sulfonyl)-2-((1H-pyrrolo[2,3-b]pyridin-5-yl)oxy)-4-((R)-4-((4′-chloro-4,4-dimethyl-3,4,5,6-tetrahydro-[1,1′-biphenyl]-2-yl)methyl)-2-methylpiperazin-1-yl) benzamide] | 0.00498 µM | > 1 µM | 0.054 µM |
| C[C@@H]1CN(CC2=C(c3ccc(Cl)cc3)CCC(C)(C)C2)CCN1c1ccc(C(=O)NS(=O)(=O)c2cc(F)c(NC[C@H]3COCCO3)c([N+](=O)[O-])c2)c(Oc2cnc3[nH]ccc3c2)c1 [Example 45, N-((4-((((S)-1,4-dioxan-2-yl)methyl)amino)-3-fluoro-5-nitrophenyl)sulfonyl)-2-((1H-pyrrolo[2,3-b]pyridin-5-yl)oxy)-4-((R)-4-((4′-chloro-4,4-dimethyl-3,4,5,6-tetrahydro-[1,1′-biphenyl]-2-yl)methyl)-2-methylpiperazin-1-yl)benzamide] | 0.00422 µM | > 1 µM | 0.052 µM |
| C[C@H]1CN(c2ccc(C(=O)NS(=O)(=O)c3cc(F)c(NC[C@H]4COCCO4)c([N+](=O)[O-])c3)c(Oc3cnc4[nH]ccc4c3)c2)CCN1CC1=C(c2ccc(Cl)cc2)CC(C)(C)CC1 [Example 47, N-((4-((((S)-1,4-dioxan-2-yl)methyl)amino)-3-fluoro-5-nitrophenyl)sulfonyl)-2-((1H-pyrrolo[2,3-b]pyridin-5-yl)oxy)-4-((S)-4-((4′-chloro-5,5-dimethyl-3,4,5,6-tetrahydro-[1,1′-biphenyl]-2-yl)methyl)-3-methylpiperazin-1-yl) benzamide] | > 0.1 µM | > 1 µM | 0.486 µM |
| C[C@H]1CN(c2ccc(C(=O)NS(=O)(=O)c3ccc(NC[C@H]4COCCO4)c([N+](=O)[O-])c3)c(Oc3cnc4[nH]ccc4c3)c2)CCN1CC1=C(c2ccc(Cl)cc2)CCC(C)(C)C1 [Example 49, N-((4-((((S)-1,4-dioxan-2-yl)methyl)amino)-3-nitrophenyl)sulfonyl)-2-((1H-pyrrolo[2,3-b]pyridin-5-yl)oxy)-4-((S)-4-((4′-chloro-4,4-dimethyl-3,4,5,6-tetrahydro-[1,1′-biphenyl]-2-yl)methyl)-3-methylpiperazin-1-yl) benzamide] | > 0.1 µM | > 1 µM | > 0.5 µM |
| C[C@H]1CN(c2ccc(C(=O)NS(=O)(=O)c3ccc(NCC4CCOCC4)c([N+](=O)[O-])c3)c(Oc3cnc4[nH]ccc4c3)c2)CCN1CC1=C(c2ccc(Cl)cc2)CC(C)(C)CC1 [Example 50, (S)-2-((1H-pyrrolo[2,3-b]pyridin-5-yl)oxy)-4-(4-((4′-chloro-5,5-dimethyl-3,4,5,6-tetrahydro-[1,1′-biphenyl]-2-yl)methyl)-3-methylpiperazin-1-yl)-N-((3-nitro-4--(((tetrahydro-2H-pyran-4-yl)methyl)amino)phenyl)sulfonyl) benzamide] | > 0.1 µM | > 1 µM | > 0.5 µM |

More lines, in order of falling IC50 [1], values ahead:

| IC50 [1] | IC50 [2] | IC50 [3] | SMILES |
| --- | --- | --- | --- |
| 0.0638 µM | > 1 µM | 0.229 µM | C[C@H]1CN(c2ccc(C(=O)NS(=O)(=O)c3ccc(NC[C@H]4COCCO4)c([N+](=O)[O-])c3)c(Oc3cnc4[nH]ccc4c3)c2)CCN1CC1=C(c2ccc(Cl)cc2)CC(C)(C)CC1 [Example 48, N-((4-((((S)-1,4-dioxan-2-yl)methyl)amino)-3-nitrophenyl)sulfonyl)-2-((1H-pyrrolo[2,3-b]pyridin-5-yl)oxy)-4-((S)-4-((4′-chloro-5,5-dimethyl-3,4,5,6-tetrahydro-[1,1′-biphenyl]-2-yl)methyl)-3-methylpiperazin-1-yl) benzamide] |
| 0.00109 µM | > 1 µM | 0.018 µM | C[C@@H]1CN(CC2=C(c3ccc(Cl)cc3)CC(C)(C)CC2)CCN1c1ccc(C(=O)NS(=O)(=O)c2cc(F)c(NC[C@H]3COCCO3)c([N+](=O)[O-])c2)c(Oc2cnc3[nH]ccc3c2)c1 [Example 46] |
